For eight compounds, IC50 results are on record in patent US20080269267A1, “KINASE INHIBITORS USEFUL FOR THE TREATMENT OF MYLEOPROLIFIC DISEASES AND OTHER PROLIFERATIVE DISEASES” (Deciphera Pharmaceuticals, LLC, priority 2007, published 2008).

One may read the IC50 as the concentration needed to halve the response being measured.

This assay addresses T1, c-Kit kinase (SEQ ID NO:9) (Homo sapiens, UniProt P10721).
T1 construct: purchased ProQinase
The experiment in a line: c-Kit kinase assay (pyruvate kinase/lactate dehydrogenase coupled). Conditions: <2 min preincubation at 22° C., ATP 200 μM; read-out: c-Kit Enzyme Assay, biochemical IC50. As for the experimental part:
C-Kit Kinase (SEQ ID NO:9) Assay
Activity of c-Kit kinase (SEQ ID NO:9) was determined by following the production of ADP from the kinase reaction through coupling with the pyruvate kinase/lactate dehydrogenase system (e.g., Schindler, et al. Science (2000) 289, 1938-1942). In this assay, the oxidation of NADH (thus the decrease at A340 nm) was continuously monitored spectrophometrically. The reaction mixture ([…]) contained c-Kit (cKIT residues T544-V976, from ProQinase, 5.4 nM), polyE4Y (1 mg/ml), MgCl2 (10 mM), pyruvate kinase (4 units), lactate dehydrogenase (0.7 units), phosphoenol pyruvate (1 mM), and NADH (0.28 mM) in 90 mM Tris buffer containing 0.2% octyl-glucoside and 1% DMSO, pH 7.5. Test compounds were incubated with […] (SEQ ID NO:9) and other reaction reagents at 22° C. for <2 min before ATP (200 μM) was added to start the reaction. The absorption at 340 nm was monitored continuously for 0.5 hours at 30° C. on Polarstar Optima plate reader (BMG). The reaction rate was calculated using the 0 to 0.5 h time frame. Percent inhibition was obtained by comparison of reaction rate with that of a control (i.e. with no test compound). IC50 values were calculated from a series of percent inhibition values determined at a range of inhibitor concentrations using software routines as implemented in the GraphPad Prism software package.

T1 sequence (P10721 with tags, fused parts or gaps): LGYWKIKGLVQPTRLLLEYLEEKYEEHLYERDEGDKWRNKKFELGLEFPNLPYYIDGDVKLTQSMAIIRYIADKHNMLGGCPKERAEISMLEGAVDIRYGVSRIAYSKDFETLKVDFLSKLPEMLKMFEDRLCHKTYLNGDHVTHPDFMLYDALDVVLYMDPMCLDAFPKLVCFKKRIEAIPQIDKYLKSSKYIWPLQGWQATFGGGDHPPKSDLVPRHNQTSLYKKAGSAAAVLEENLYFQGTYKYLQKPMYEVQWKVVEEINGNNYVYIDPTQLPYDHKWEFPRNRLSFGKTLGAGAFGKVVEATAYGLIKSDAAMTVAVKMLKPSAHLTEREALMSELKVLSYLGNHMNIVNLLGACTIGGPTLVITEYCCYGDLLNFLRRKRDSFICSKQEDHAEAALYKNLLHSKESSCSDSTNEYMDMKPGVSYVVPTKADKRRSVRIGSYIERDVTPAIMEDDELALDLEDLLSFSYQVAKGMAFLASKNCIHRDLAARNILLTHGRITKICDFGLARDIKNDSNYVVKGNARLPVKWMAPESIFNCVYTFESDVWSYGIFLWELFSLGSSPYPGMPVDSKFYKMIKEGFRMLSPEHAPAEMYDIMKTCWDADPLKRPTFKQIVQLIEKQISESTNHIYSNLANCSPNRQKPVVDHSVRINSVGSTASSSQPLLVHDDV

Regarding `CC(C)c1cc(NC(=O)Nc2ccc(Oc3ccnc(-c4cnn(C)c4)c3)cc2F)n(-c2cccc(C#N)c2)n1` [Example 2, 1-(1-(3-cyanophenyl)-3-isopropyl-1H-pyrazol-5-yl)-3-(2-fluoro-4-(2-(1-methyl-1H-pyrazol-4-yl)pyridin-4-yloxy)phenyl)urea], the IC50 was under 100 nM.
For the compound `CC(C)c1cc(NC(=O)Nc2ccc(Oc3ccnc(-c4cnn(C)c4)c3)cc2F)n(-c2ccc(F)c(C#N)c2)n1` [Example 5, 1-(1-(3-cyano-4-fluorophenyl)-3-isopropyl-1H-pyrazol-5-yl)-3-(2-fluoro-4-(2-(1-methyl-1H-pyrazol-4-yl)pyridin-4-yloxy)phenyl)urea], the IC50 is under 100 nM.
The value for `CCc1cc(NC(=O)Nc2ccc(Oc3ccnc(-c4cnn(C)c4)c3)cc2F)n(-c2cccc(C#N)c2)n1` [Example 9, 1-(1-(3-cyanophenyl)-3-ethyl-1H-pyrazol-5-yl)-3-(2-fluoro-4-(2-(1-methyl-1H-pyrazol-4-yl)pyridin-4-yloxy)phenyl)urea] was under 100 nM.
The value for `Cc1c(Oc2ccnc(-c3cnn(C)c3)c2)ccc(NC(=O)Nc2cc(C(C)C)nn2-c2cccc(C#N)c2)c1F` [Example 12, 1-(1-(3-cyanophenyl)-3-isopropyl-1H-pyrazol-5-yl)-3-(2-fluoro-3-methyl-4-(2-(1-methyl-1H-pyrazol-4-yl)pyridin-4-yloxy)phenyl)urea] was under 100 nM; that for `CC(C)c1cc(NC(=O)Nc2ccc(Oc3ccnc(-c4cnn(C)c4)c3)c(F)c2F)n(-c2cccc(C#N)c2)n1` [Example 13, 1-(1-(3-cyanophenyl)-3-isopropyl-1H-pyrazol-5-yl)-3-(2,3-difluoro-4-(2-(1-methyl-1H-pyrazol-4-yl)pyridin-4-yloxy)phenyl)urea] was under 100 nM; that for `CCc1cc(NC(=O)Nc2ccc(Oc3ccnc(-c4cnn(C(C)C)c4)c3)cc2F)n(-c2cccc(C#N)c2)n1` [Example 17, 1-(1-(3-cyanophenyl)-3-ethyl-1H-pyrazol-5-yl)-3-(2-fluoro-4-(2-(1-isopropyl-1H-pyrazol-4-yl)pyridin-4-yloxy)phenyl)urea] was under 100 nM.
The value for `CCc1cc(NC(=O)Nc2ccc(Oc3ccnc(-c4cnn(C)c4)c3)cc2F)n(-c2ccc(CO)cc2)n1` [Example 19, 1-(3-ethyl-1-(4-(hydroxymethyl)phenyl)-1H-pyrazol-5-yl)-3-(2-fluoro-4-(2-(1-methyl-1H-pyrazol-4-yl)pyridin-4-yloxy)phenyl)urea] was under 100 nM; that for `CC(C)n1cc(NC(=O)Nc2ccc(Oc3ccnc(-c4cnn(C)c4)c3)cc2F)c(-c2ccccc2)n1` [Example 21, 1-(2-fluoro-4-(2-(1-methyl-1H-pyrazol-4-yl)pyridin-4-yloxy)phenyl)-3-(1-isopropyl-3-phenyl-1H-pyrazol-4-yl)urea] was under 100 nM.
